Experimental findings from patent US7807664B2, “4,4-difluoro-1,2,3,4-tetrahydro-5H-1-benzazepine derivative or salt thereof” (Astella Pharma Inc., priority 2003, dated 2010) are described below.

pIC50, pKi: −log10 of the molar value. A value given as a limit tells only on which side of the number the result lay.

The term pKi denotes −log10 of the Ki, conventionally taken in molar units. What is called pIC50 is −log10 of the IC50, conventionally taken in molar units.

Test [1] deals with T1, human V2 receptor (Homo sapiens, UniProt P30518).
T1 construct: expressed in transfected cells; host or cells: CHO cells (membrane preparation)
T1 sequence (P30518 whole entry): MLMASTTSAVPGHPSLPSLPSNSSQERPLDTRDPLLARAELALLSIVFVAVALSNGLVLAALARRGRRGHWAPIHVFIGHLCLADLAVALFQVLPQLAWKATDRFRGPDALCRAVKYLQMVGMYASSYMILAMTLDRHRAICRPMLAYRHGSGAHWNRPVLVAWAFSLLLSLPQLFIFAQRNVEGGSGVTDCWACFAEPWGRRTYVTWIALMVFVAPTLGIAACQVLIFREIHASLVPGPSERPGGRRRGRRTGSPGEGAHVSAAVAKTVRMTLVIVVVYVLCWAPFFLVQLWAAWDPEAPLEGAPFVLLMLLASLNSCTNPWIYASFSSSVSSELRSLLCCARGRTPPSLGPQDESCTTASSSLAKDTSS
Briefly: V2 Receptor Binding Test. To be noted: human V2 expression CHO cell membrane, [3H]-vasopressin 0.5 nM, 25° C. 60 minutes; read-out: Affinity for V2 receptor Ki. How it is done: (1) V2 Receptor Binding Test
A human V2 expression CHO cell membrane sample was prepared in accordance with the method of Tahara et al. (British Journal of Pharmacology, Vol. 125, pp. 1463-1470, 1998). A 2 μg portion of the membrane sample was incubated together with [^3H]-arginine vasopressin (to be referred simply to as “[^3H]-vasopressin” hereinafter) (0.5 nM, specific activity=75 Ci/mmol) and each compound to be tested (10^−10 to 10^−5 M) at 25° C. for 60 minutes in 250 μl in total volume of 50 mM Tris-HCl buffer (pH=7.4) containing 10 mM MgCl2 and 0.1% bovine serum albumin (BSA). Thereafter, free [^3H]-vasopressin and receptor-bonded [^3H]-vasopressin were separated using a cell harvester, and the receptor-bonded [^3H]-vasopressin was adhered onto a uni-filter plate GF/B glass filter. After sufficient drying, this was mixed with a microplate scintillation cocktail, amount of the receptor-bonded [^3H]-vasopressin was measured using top count and the inhibition ratio was calculated by the following formula. Inhibition ratio(%)=100−(C1−B1)/(C0−B1)×100 C1: Amount of [^3H]-vasopressin bonded to the membrane sample when [^3H]-vasopressin and the receptor membrane sample are treated in the coexistence of test compound having known concentration C0: Amount of [^3H]-vasopressin bonded to the membrane sample when [^3H]-vasopressin and the receptor membrane sample are treated in the absence of test compound B1: Amount of [^3H]-vasopressin bonded to the membrane sample when [^3H]-vasopressin and the receptor membrane sample are treated in the coexistence of excess amount of vasopressin (10^−6 M)
Concentration of each test compound by which the inhibition ratio becomes 50% (IC50 value) was calculated by the aforementioned formula, and affinity of the test compound for the receptor, namely dissociation constant (Ki), was calculated from this by the following formula. Dissociation constant(Ki)=IC50/(1+[L]/Kd) [L]: Concentration of [^3H]-vasopressin Kd: Dissociation constant of [^3H]-vasopressin against the receptor obtained by a saturation binding test

Test [2] concerns the target CYP2C9 (Homo sapiens, UniProt P11712). Briefly: Cytochrome P450 (2C9) Enzyme Inhibition Test. The class given is in vitro ADME. To be noted: substrate 7-methoxy-4-(trifluoromethyl)cumarin, 37° C. 45 minutes; read-out: CYP2C9 inhibitory activity IC50. How it is done: (§1) Using a 96 well plate, 7-benzyloxy-4-(trifluoromethyl)cumarin as the substrate (5×10^−5 M), each test compound (from 4.9×10^−8 to 5×10^−5 M) and the enzyme (5×10^−9 M) were incubated at 37° C. for 30 minutes in 200 μl in total volume of 200 mM phosphate buffer (pH=7.4) containing 8.2 μM NADP+, 0.41 mM glucose-6-phosphate, 0.41 mM MgCl2 and 0.4 units/ml glucose-6-phosphate dehydrogenase. Thereafter, the reaction was stopped by adding 0.5 M 2-amino-2-hydroxymethyl-1,3-propanediol aqueous solution containing 80% acetonitrile, and the fluorescence intensity (excitation wavelength; 409 nm, fluorescence wavelength; 530 nm) was measured using a fluorescence plate reader. The inhibition ratio was calculated based on the following formula, and concentration of each test compound by which the inhibition ratio becomes 50% (IC50) was obtained. Inhibition ratio (%)=100−(C1−B1)/(C0−B1)×100 C1: Fluorescence intensity in the presence of test compound having known concentration, enzyme and substrate C0: Fluorescence intensity in the absence of test compound and in the presence of enzyme and substrate B1: Fluorescence intensity of blank well (5) Cytochrome P450 (2C9) Enzyme Inhibition Test
(§2) This test was carried out in accordance with the method of Crespi et al. (Analytical Biochemistry, 248, 188-190, 1997).
Using a 96 well plate, 7-methoxy-4-(trifluoromethyl)cumarin as the substrate (7.5×10^−5 M), each test compound (from 4.9×10^−8 to 5×10^−5 M) and the enzyme (10^−8 M) were incubated at 37° C. for 45 minutes in 200 μl in total volume of 200 mM phosphate buffer (pH=7.4) containing 8.2 μM NADP+, 0.41 mM glucose-6-phosphate, 0.41 mM MgCl2 and 0.4 units/ml glucose-6-phosphate dehydrogenase. Thereafter, the reaction was stopped by adding 0.5 M 2-amino-2-hydroxymethyl-1,3-propanediol aqueous solution containing 80% acetonitrile, and the fluorescence intensity (excitation wavelength; 409 nm, fluorescence wavelength; 530 nm) was measured using a fluorescence plate reader. The inhibition ratio was calculated based on the same formula of aforementioned (4), and concentration of each test compound by which the inhibition ratio becomes 50% (IC50) was obtained.

For test [3], the target named is CYP3A4 (Homo sapiens, UniProt P08684). Briefly: Cytochrome P450 (3A4) Enzyme Inhibition Test. Particulars: substrate 7-benzyloxy-4-(trifluoromethyl)cumarin, 37° C. 30 minutes; read-out: CYP3A4 inhibitory activity IC50. The format is in vitro ADME. How it is done: (4) Cytochrome P450 (3A4) Enzyme Inhibition Test
Sequence of CYP3A4 (P08684 whole entry): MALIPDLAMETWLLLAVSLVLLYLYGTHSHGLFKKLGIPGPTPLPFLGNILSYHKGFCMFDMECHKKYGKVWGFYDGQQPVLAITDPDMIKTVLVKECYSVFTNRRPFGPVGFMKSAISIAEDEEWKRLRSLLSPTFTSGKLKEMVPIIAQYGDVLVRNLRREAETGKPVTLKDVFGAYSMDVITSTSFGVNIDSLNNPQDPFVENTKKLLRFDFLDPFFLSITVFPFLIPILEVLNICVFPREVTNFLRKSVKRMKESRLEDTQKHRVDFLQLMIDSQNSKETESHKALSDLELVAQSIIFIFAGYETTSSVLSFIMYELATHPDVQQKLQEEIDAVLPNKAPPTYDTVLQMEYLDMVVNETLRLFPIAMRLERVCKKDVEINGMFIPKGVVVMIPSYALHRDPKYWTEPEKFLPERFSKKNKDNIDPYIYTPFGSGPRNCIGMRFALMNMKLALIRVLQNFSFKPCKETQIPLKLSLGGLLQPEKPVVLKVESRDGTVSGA
as §2, §1

The test system of test [4] is male Wistar rats. The test can be described thus: Antidiuretic Test (Intravenous Administration). To be noted: rat, 0.3 mg/kg intravenous, water loading 30 ml/kg 15 minutes later; for Urine excretion ratio (%) After 1 hour: urine until 1 hour; for Urine excretion ratio (%) After 2 hours: urine until 2 hours. The class given is in vivo. The method, then:
(2) Antidiuretic Test (Intravenous Administration)
Five animals per group of male Wistar rats (10 to 12 weeks of age) were used in the test. The compound of Example 3 was intravenously administered to group A at a dose of 0.3 mg/kg, and the compound of Example 9 to group B at a dose of 0.3 mg/kg, both after dissolving in a solvent (physiological saline containing DMSO), and the solvent alone at a dose of 1 ml/kg to group C as a control, and then 30 ml/kg of distilled water was orally administered by force 15 minutes thereafter (water loading). Urine samples until 2 hours after the water loading were collected using a metabolism cage, and the amount of urine when the water loading amount was defined as 100% was calculated as the urine excretion ratio. In this connection, average value of the urine excretion ratio until after 1 hour and the urine excretion ratio until after 2 hours in each group was used in the evaluation.

Sequence of CYP2C9 (P11712 whole entry): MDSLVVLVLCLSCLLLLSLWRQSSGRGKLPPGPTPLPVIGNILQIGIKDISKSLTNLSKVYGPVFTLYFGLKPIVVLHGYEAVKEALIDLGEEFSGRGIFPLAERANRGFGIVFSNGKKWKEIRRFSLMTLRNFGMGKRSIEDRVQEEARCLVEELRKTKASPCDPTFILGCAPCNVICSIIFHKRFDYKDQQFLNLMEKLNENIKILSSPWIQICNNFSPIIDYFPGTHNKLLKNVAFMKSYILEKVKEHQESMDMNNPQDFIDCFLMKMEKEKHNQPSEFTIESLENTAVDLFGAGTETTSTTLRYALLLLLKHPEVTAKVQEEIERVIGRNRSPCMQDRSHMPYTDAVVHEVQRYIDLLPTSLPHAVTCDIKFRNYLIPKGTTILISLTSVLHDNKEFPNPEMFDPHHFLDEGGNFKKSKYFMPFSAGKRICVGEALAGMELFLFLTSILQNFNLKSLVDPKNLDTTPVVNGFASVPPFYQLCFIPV

`C[C@@H](F)COc1ccc(C(=O)N2CCC(F)(F)/C(=C\C(=O)NC[C@@H](O)CO)c3cc(F)ccc32)c(C(F)(F)F)c1` [Example 136, (2Z)-N-[(2R)-2,3-dihydroxypropyl]-2-{4,4,7-trifluoro-1-[4-{[(2R)-2-fluoropropyl]oxy}-2-(trifluoromethyl)benzoyl]-1,2,3,4-tetrahydro-5H-1-benzazepin-5-ylidene}acetamide]: the pKi in test [1] is 7.96. Further, the pIC50 in test [2] and in test [3] was less than 4.30 each time.
On to `C[C@H](F)COc1ccc(C(=O)N2CCC(F)(F)/C(=C\C(=O)NCCO)c3cc(F)ccc32)c(C(F)(F)F)c1` [Example 54, (2Z)-N-(2-hydroxyethyl)-2-{4,4,7-trifluoro-1-[4-{[(2S)-2-fluoropropyl]oxy}-2-(trifluoromethyl)benzoyl]-1,2,3,4-tetrahydro-5H-1-benzazepin-5-ylidene}acetamide], for which, in test [1], the pKi was 7.77. In addition, the pIC50 in test [2] is 4.37; in test [3] it was less than 4.30.
On to `CC(C)NC(=O)C[C@H]1CCCN(C(=O)c2ccc(N3CCCC3)cc2Cl)c2ccccc21` [Comparative compound, 2-[(5R)-1-(2-chloro-4-pyrrolidin-1-ylbenzoyl)-2,3,4,5-tetrahydrobenzazepin-5-yl]-N-isopropylacetamide, reference compound], for which the pIC50 in test [2] and in test [3] was more than 7.04 each time.
Consider `CC(F)(F)COc1ccc(C(=O)N2CCC(F)(F)/C(=C\C(=O)NCCO)c3ccccc32)c(C(F)(F)F)c1` [Example 51, (2Z)-2-{1-[4-(2,2-difluoropropoxy)-2-(trifluoromethyl)benzoyl]-4,4-difluoro-1,2,3,4-tetrahydro-5H-1-benzazepin-5-ylidene}-N-(2-hydroxyethyl)acetamide], for which the pIC50 is 4.47 in test [2] and less than 4.30 in test [3].
As to `C[C@@H](F)COc1ccc(C(=O)N2CCC(F)(F)/C(=C\C(=O)NCCO)c3cc(F)ccc32)c(C(F)(F)F)c1` [Example 55, (2Z)-N-(2-hydroxyethyl)-2-{4,4,7-trifluoro-1-[4-{[(2R)-2-fluoropropyl]oxy}-2-(trifluoromethyl)benzoyl]-1,2,3,4-tetrahydro-5H-1-benzazepin-5-ylidene}acetamide], the negative-log Ki (pKi) in test [1] was 7.80.
Regarding `C[C@@H](F)COc1ccc(C(=O)N2CCC(F)(F)/C(=C\C(=O)NCC(N)=O)c3cc(F)ccc32)c(C(F)(F)F)c1` [Example 31, (2Z)-N-(2-amino-2-oxoethyl)-2-{4,4,7-trifluoro-1-[4-{[(2R)-2-fluoropropyl]oxy}-2-(trifluoromethyl)benzoyl]-1,2,3,4-tetrahydro-5H-1-benzazepin-5-ylidene}acetamide], the pKi in test [1] was 8.00.
Take `CCCOc1ccc(C(=O)N2CCC(F)(F)/C(=C\C(=O)NCC(N)=O)c3cc(Cl)ccc32)c(C(F)(F)F)c1` [Example 24]: in test [1], the pKi is 8.37.
With `CCCCOc1ccc(C(=O)N2CCC(F)(F)/C(=C\C(=O)NCC(N)=O)c3ccccc32)c(C(F)(F)F)c1` [Example 9], in test [1], the pKi was 7.72. In addition, the pIC50 in test [2] was 4.96; in test [3] it was 4.89. The “Urine excretion ratio (%) After 1 hour” value in test [4] was determined as 0%. Besides, the “Urine excretion ratio (%) After 2 hours” value in test [4] is listed as 5.3%.
As for `C[C@@H](F)COc1ccc(C(=O)N2CCC(F)(F)/C(=C\C(=O)NC[C@H](O)CO)c3ccccc32)c(C(F)(F)F)c1` [Example 130, (2Z)-2-{4,4-difluoro-1-[4-{[(2R)-2-fluoropropyl]oxy}-2-(trifluoromethyl)benzoyl]-1,2,3,4-tetrahydro-5H-1-benzazepin-5-ylidene}-N-[(2S)-2,3-dihydroxypropyl]acetamide], the pIC50 in test [2] and in test [3] was less than 4.30 in each case.
As to `CCCOc1ccc(C(=O)N2CCC(F)(F)/C(=C\C(=O)Nc3cccc(O)c3)c3ccccc32)c(C(F)(F)F)c1` [Example 98], the pKi in test [1] is 8.21.
On to `C[C@@H](F)COc1ccc(C(=O)N2CCC(F)(F)/C(=C\C(=O)NCCC(N)=O)c3cc(F)ccc32)c(C(F)(F)F)c1` [Example 134, 3-[((2Z)-2-{4,4,7-trifluoro-1-[4-{[(2R)-2-fluoropropyl]oxy}-2-(trifluoromethyl)benzoyl]-1,2,3,4-tetrahydro-5H-1-benzazepin-5-ylidene}acetyl)amino]propanamide], for which, in test [1], the pKi is 7.92.
Consider `CCCOc1ccc(C(=O)N2CCC(F)(F)/C(=C\C(=O)NCCO)c3cc(F)ccc32)c(C(F)(F)F)c1` [Example 46], for which the pKi in test [1] was 8.24.
As to `NC(=O)CNC(=O)/C=C1/c2ccccc2N(C(=O)c2ccc(OCC3CC3)cc2C(F)(F)F)CCC1(F)F` [Example 3], the pKi in test [1] is 7.96. Moreover, the pIC50 in test [2] was less than 4.30. In test [4], the “Urine excretion ratio (%) After 1 hour” value turned out to be 1.3% and the “Urine excretion ratio (%) After 2 hours” value was found to be 6.2%. For the same compound, the pIC50 in test [3] is less than 4.30.
For `CCCN(C)c1ccc(C(=O)N2CCC(F)(F)/C(=C\C(=O)NCC(N)=O)c3ccccc32)c(C(F)(F)F)c1` [Example 14], the pKi in test [1] was 7.74.
